ChEMBL document CHEMBL1138241, “First gallamine-tacrine hybrid: design and characterization at cholinesterases and the M2 muscarinic receptor” (J Med Chem, 2007)
pEC50, pIC50: −log10 of the molar value.

What was measured:
[1] = biological target: T1, Muscarinic acetylcholine receptor M2 (Sus scrofa, UniProt P06199)
T1 sequence (P06199 whole entry): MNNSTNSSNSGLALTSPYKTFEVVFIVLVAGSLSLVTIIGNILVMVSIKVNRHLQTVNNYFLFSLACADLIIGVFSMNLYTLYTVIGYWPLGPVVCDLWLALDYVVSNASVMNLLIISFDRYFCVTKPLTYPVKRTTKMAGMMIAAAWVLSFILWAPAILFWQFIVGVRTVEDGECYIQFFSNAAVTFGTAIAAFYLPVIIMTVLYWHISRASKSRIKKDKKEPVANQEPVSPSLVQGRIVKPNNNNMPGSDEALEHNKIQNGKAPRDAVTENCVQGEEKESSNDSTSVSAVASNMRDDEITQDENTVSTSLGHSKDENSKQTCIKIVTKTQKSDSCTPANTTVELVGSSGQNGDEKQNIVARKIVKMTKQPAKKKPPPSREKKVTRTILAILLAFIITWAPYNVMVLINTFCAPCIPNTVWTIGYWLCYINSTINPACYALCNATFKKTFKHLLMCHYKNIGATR
Description: Inhibition of [3H]NMS dissociation from porcine muscarinic M2 receptor

Acetylcholinesterase [2] = biological target: Acetylcholinesterase (Electrophorus electricus, UniProt O42275)
Description: Inhibition of Electrophorus electricus Acetylcholinesterase

Acetylcholinesterase [3] = biological target: Acetylcholinesterase (Torpedo californica, UniProt P04058)
Description: Inhibition of Torpedo californica Acetylcholinesterase

Acetylcholinesterase [4] = biological target: Acetylcholinesterase (Homo sapiens, UniProt P22303)
Sequence of Acetylcholinesterase (Homo sapiens, UniProt P22303) (P22303 whole entry): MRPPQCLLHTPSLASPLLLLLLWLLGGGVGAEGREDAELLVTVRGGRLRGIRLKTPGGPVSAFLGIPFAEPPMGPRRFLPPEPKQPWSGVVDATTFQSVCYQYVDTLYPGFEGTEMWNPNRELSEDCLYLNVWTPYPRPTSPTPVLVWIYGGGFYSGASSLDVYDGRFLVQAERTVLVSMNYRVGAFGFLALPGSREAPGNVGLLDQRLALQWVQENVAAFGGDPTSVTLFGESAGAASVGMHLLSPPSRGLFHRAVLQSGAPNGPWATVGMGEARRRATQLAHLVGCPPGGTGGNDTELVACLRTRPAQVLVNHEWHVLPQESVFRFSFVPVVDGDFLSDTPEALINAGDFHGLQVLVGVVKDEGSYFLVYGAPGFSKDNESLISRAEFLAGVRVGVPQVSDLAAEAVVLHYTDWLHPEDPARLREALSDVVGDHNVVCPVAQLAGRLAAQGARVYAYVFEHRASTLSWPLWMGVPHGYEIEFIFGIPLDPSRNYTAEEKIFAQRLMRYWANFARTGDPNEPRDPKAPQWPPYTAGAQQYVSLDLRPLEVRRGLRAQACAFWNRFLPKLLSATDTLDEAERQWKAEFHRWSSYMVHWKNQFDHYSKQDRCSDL
Description: Inhibition of human Acetylcholinesterase

Sequence of Acetylcholinesterase (Torpedo californica, UniProt P04058) (P04058 whole entry): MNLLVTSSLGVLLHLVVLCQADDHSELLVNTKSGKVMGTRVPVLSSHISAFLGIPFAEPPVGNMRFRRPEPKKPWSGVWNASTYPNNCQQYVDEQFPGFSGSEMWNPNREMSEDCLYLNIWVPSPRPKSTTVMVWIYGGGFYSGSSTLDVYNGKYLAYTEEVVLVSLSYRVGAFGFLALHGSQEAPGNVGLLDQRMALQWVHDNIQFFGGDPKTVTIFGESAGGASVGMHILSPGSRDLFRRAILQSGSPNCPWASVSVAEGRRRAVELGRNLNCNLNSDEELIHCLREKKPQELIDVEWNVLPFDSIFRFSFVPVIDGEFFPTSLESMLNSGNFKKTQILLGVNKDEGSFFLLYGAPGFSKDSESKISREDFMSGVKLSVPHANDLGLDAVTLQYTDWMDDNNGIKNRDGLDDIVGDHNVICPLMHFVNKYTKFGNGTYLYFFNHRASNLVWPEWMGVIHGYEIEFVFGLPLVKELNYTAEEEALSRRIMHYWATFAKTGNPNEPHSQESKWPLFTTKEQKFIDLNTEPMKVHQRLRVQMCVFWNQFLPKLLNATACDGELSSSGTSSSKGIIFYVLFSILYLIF
Sequence of Acetylcholinesterase (Electrophorus electricus, UniProt O42275) (O42275 whole entry): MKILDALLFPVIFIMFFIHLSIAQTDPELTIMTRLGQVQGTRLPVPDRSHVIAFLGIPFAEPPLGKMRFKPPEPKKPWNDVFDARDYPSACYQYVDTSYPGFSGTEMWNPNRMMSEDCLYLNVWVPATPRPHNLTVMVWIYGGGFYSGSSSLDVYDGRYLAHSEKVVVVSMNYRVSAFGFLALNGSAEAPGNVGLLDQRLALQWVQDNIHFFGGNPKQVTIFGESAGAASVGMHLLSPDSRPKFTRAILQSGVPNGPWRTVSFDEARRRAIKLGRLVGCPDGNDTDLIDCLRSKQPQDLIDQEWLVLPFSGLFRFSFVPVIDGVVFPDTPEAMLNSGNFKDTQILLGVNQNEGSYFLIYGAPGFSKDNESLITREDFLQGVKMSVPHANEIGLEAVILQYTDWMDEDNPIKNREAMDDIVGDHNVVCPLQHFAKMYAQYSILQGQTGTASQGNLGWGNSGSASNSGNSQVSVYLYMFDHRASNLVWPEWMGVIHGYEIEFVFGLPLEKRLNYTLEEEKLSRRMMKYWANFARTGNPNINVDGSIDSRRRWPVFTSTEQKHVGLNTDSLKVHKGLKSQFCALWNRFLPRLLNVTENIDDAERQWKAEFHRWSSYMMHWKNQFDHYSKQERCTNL

Row | SMILES | pEC50 [1] | pIC50 (Acetylcholinesterase [2]) | pIC50 (Acetylcholinesterase [3]) | pIC50 (Acetylcholinesterase [4])
1 | CC[N+](CC)(CC)CCOc1cc(OCC[N+](CC)(CC)CC)cc(C(=O)NCCCCCC(=O)NNc2c3c(nc4ccccc24)CCCC3)c1 | 9.05 | 8.89 | 8.07 | 7.80
2 | CC[N+](CC)(CC)CCOc1cc(OCC[N+](CC)(CC)CC)cc(C(=O)NCCCCCC(=O)NNc2c3c(nc4cc(Cl)ccc24)CCCC3)c1 | 8.82 | 7.32 | 6.52 | 8.17
3 | CC[N+](CC)(CC)CCOc1cccc(OCC[N+](CC)(CC)CC)c1OCC[N+](CC)(CC)CC [GALLAMINE] | 6.89 | 2.50 |  | 2.68
4 | CC[N+](CC)(CC)CCOc1cc(OCC[N+](CC)(CC)CC)c(C(=O)NCCCCCC(=O)NNc2c3c(nc4cc(Cl)ccc24)CCCC3)cc1OCC[N+](CC)(CC)CC | 9.00 | 7.05 | 6.48 | 8.18
5 | CC[N+](CC)(CC)CCOc1ccc(C(=O)NCCCCCC(=O)NNc2c3c(nc4cc(Cl)ccc24)CCCC3)cc1 | 8.30 | 7.59 | 6.90 | 8.26
6 | CC[N+](CC)(CC)CCOc1cc(OCC[N+](CC)(CC)CC)c(C(=O)NCCCCCC(=O)NNc2c3c(nc4ccccc24)CCCC3)cc1OCC[N+](CC)(CC)CC | 8.85 |  | 7.56 | 
7 | CC[N+](CC)(CC)CCOc1ccc(C(=O)NCCCCCC(=O)NNc2c3c(nc4ccccc24)CCCC3)cc1 | 8.89 | 9.33 | 7.75 | 8.12
